Reference: PubChem BioAssay AID1745844 (Carcinogenic Potency Database (CPDB), 2022)
Activity calls are given as the source filed them. No rule for the calls is given here.

System: rodent lifetime carcinogenesis bioassay, tumor incidence TD50
Assay: chronic cancer bioassays in animals – CPDB, compiled studies (AID 1745844)
[1] = mouse, strain B6AKF1, females, oral dosing, site: any site (literature study), lesion: several types, types named in the paper, dosed 76 weeks, study length 76 weeks
[2] = mouse, strain B6AKF1, females, oral dosing, site: liver, lesion: hepatoma, dosed 76 weeks, study length 76 weeks
[3] = mouse, strain B6AKF1, females, oral dosing, site: lung, lesion: adenoma, dosed 76 weeks, study length 76 weeks
[4] = mouse, strain B6AKF1, males, oral dosing, site: any site (literature study), lesion: several types, types named in the paper, dosed 76 weeks, study length 76 weeks
[5] = mouse, strain B6AKF1, males, oral dosing, site: liver, lesion: hepatoma, dosed 76 weeks, study length 76 weeks
[6] = mouse, strain B6AKF1, males, oral dosing, site: lung, lesion: adenoma, dosed 76 weeks, study length 76 weeks
[7] = mouse, strain B6C3F1, females, oral dosing, site: any site (literature study), lesion: several types, types named in the paper, dosed 76 weeks, study length 76 weeks
[8] = mouse, strain B6C3F1, females, oral dosing, site: liver, lesion: hepatoma, dosed 76 weeks, study length 76 weeks
[9] = mouse, strain B6C3F1, females, oral dosing, site: lung, lesion: several types, types named in the paper, dosed 76 weeks, study length 76 weeks
[10] = mouse, strain B6C3F1, males, oral dosing, site: any site (literature study), lesion: several types, types named in the paper, dosed 76 weeks, study length 76 weeks
[11] = mouse, strain B6C3F1, males, oral dosing, site: liver, lesion: hepatoma, dosed 76 weeks, study length 76 weeks
[12] = mouse, strain B6C3F1, males, oral dosing, site: lung, lesion: adenoma, dosed 76 weeks, study length 76 weeks

## O=C(O)c1ccccc1
mouse, strain Swiss albino, females, in drinking water, site: liver, lesion: one or several types, types not named, dosed 134 weeks, study length 134 weeks
  carcinogen call: negative (inactive)
mouse, strain Swiss albino, females, in drinking water, site: lung, lesion: one or several types, types not named, dosed 134 weeks, study length 134 weeks
  carcinogen call: negative (inactive)
mouse, strain Swiss albino, males, in drinking water, site: liver, lesion: hepatoma, dosed 113 weeks, study length 113 weeks
  TD50: 133000 mg/kg/day (inactive)
mouse, strain Swiss albino, males, in drinking water, site: lung, lesion: one or several types, types not named, dosed 113 weeks, study length 113 weeks
  carcinogen call: negative (inactive)
rat, strain Fischer 344, females, in feed, site: any site (literature study), lesion: malignant tumor, dosed 104 weeks, study length 108 weeks
  TD50: 104000 mg/kg/day (inactive)
rat, strain Fischer 344, females, in feed, site: any site (literature study), lesion: several types, types named in the paper, dosed 104 weeks, study length 108 weeks
  TD50: 24900 mg/kg/day (inactive)
rat, strain Fischer 344, males, in feed, site: any site (literature study), lesion: malignant tumor, dosed 104 weeks, study length 108 weeks
  carcinogen call: negative (inactive)
rat, strain Fischer 344, males, in feed, site: any site (literature study), lesion: several types, types named in the paper, dosed 104 weeks, study length 108 weeks
  carcinogen call: negative (inactive)

## ClCC(Cl)(Cl)Cl
mouse, strain B6C3F1, females, by gavage, site: any site (literature study), lesion: several types, types named in the paper, dosed 103 weeks, study length 104 weeks
  TD50: 110 mg/kg/day
mouse, strain B6C3F1, females, by gavage, site: liver, lesion: hepatocellular adenoma + hepatocellular carcinoma + neoplastic nodule, dosed 103 weeks, study length 104 weeks
  TD50: 175 mg/kg/day
mouse, strain B6C3F1, females, by gavage, site: liver, lesion: hepatocellular adenoma + hepatocellular carcinoma, dosed 103 weeks, study length 104 weeks
  TD50: 175 mg/kg/day
mouse, strain B6C3F1, females, by gavage, site: liver, lesion: hepatocellular adenoma, dosed 103 weeks, study length 104 weeks
  TD50: 254 mg/kg/day
mouse, strain B6C3F1, females, by gavage, site: liver, lesion: hepatocellular carcinoma, dosed 103 weeks, study length 104 weeks
  TD50: 640 mg/kg/day
mouse, strain B6C3F1, females, by gavage, site: lung, lesion: alveolar/bronchiolar adenoma + alveolar/bronchiolar carcinoma, dosed 103 weeks, study length 104 weeks
  TD50: 1820 mg/kg/day
mouse, strain B6C3F1, males, by gavage, site: any site (literature study), lesion: several types, types named in the paper, dosed 103 weeks, study length 104 weeks
  TD50: 97.9 mg/kg/day
mouse, strain B6C3F1, males, by gavage, site: liver, lesion: hepatocellular adenoma + hepatocellular carcinoma + neoplastic nodule, dosed 103 weeks, study length 104 weeks
  TD50: 124 mg/kg/day
mouse, strain B6C3F1, males, by gavage, site: liver, lesion: hepatocellular adenoma + hepatocellular carcinoma, dosed 103 weeks, study length 104 weeks
  TD50: 124 mg/kg/day
mouse, strain B6C3F1, males, by gavage, site: liver, lesion: hepatocellular adenoma, dosed 103 weeks, study length 104 weeks
  TD50: 190 mg/kg/day
mouse, strain B6C3F1, males, by gavage, site: lung, lesion: alveolar/bronchiolar adenoma + alveolar/bronchiolar carcinoma, dosed 103 weeks, study length 104 weeks
  TD50: 1330 mg/kg/day
rat, strain Fischer 344, females, by gavage, site: liver, lesion: hepatocellular adenoma + hepatocellular carcinoma + neoplastic nodule, dosed 103 weeks, study length 104 weeks
  TD50: 3980 mg/kg/day
rat, strain Fischer 344, females, by gavage, site: mammary gland, lesion: fibroadenoma, dosed 103 weeks, study length 104 weeks
  TD50: 170 mg/kg/day (inactive)
rat, strain Fischer 344, males, by gavage, site: any site (literature study), lesion: several types, types named in the paper, dosed 103 weeks, study length 104 weeks
  TD50: 464 mg/kg/day
rat, strain Fischer 344, males, by gavage, site: liver, lesion: hepatocellular adenoma + hepatocellular carcinoma + neoplastic nodule, dosed 103 weeks, study length 104 weeks
  TD50: 1130 mg/kg/day
rat, strain Fischer 344, males, by gavage, site: multiple organs + peritoneum + tunica vaginalis, lesion: mesothelioma, malignant + mesothelioma, NOS, dosed 103 weeks, study length 104 weeks
  TD50: 842 mg/kg/day (inactive)

## O=C1c2ccccc2C(=O)N1SC(Cl)(Cl)Cl
[1]
  carcinogen call: negative (inactive)
[2]
  carcinogen call: negative (inactive)
[3]
  carcinogen call: negative (inactive)
[4]
  carcinogen call: negative (inactive)
[5]
  TD50: 8230 mg/kg/day (inactive)
[6]
  carcinogen call: negative (inactive)
mouse, strain B6C3F1, females, in feed, site: all sites, lesion: malignant lymphoma, dosed 104 weeks, study length 104 weeks
  TD50: 2200 mg/kg/day
mouse, strain B6C3F1, females, in feed, site: duodenum, lesion: adenocarcinoma, dosed 104 weeks, study length 104 weeks
  TD50: 2090 mg/kg/day
mouse, strain B6C3F1, females, in feed, site: duodenum, lesion: adenoma, dosed 104 weeks, study length 104 weeks
  TD50: 29200 mg/kg/day
mouse, strain B6C3F1, females, in feed, site: duodenum, lesion: several types, types named in the paper, dosed 104 weeks, study length 104 weeks
  TD50: 1670 mg/kg/day
mouse, strain B6C3F1, females, in feed, site: liver, lesion: several types, types named in the paper, dosed 104 weeks, study length 104 weeks
  TD50: 18900 mg/kg/day
mouse, strain B6C3F1, females, in feed, site: stomach, nonglandular, lesion: several types, types named in the paper, dosed 104 weeks, study length 104 weeks
  TD50: 6000 mg/kg/day
mouse, strain B6C3F1, females, in feed, site: stomach, nonglandular, lesion: squamous-cell papilloma, dosed 104 weeks, study length 104 weeks
  TD50: 5780 mg/kg/day
[7]
  TD50: 260 mg/kg/day (inactive)
[8]
  carcinogen call: negative (inactive)
[9]
  carcinogen call: negative (inactive)
mouse, strain B6C3F1, males, in feed, site: duodenum, lesion: adenocarcinoma, dosed 104 weeks, study length 104 weeks
  TD50: 981 mg/kg/day
mouse, strain B6C3F1, males, in feed, site: duodenum, lesion: adenoma, dosed 104 weeks, study length 104 weeks
  TD50: 23000 mg/kg/day
mouse, strain B6C3F1, males, in feed, site: duodenum, lesion: several types, types named in the paper, dosed 104 weeks, study length 104 weeks
  TD50: 899 mg/kg/day
mouse, strain B6C3F1, males, in feed, site: stomach, nonglandular, lesion: several types, types named in the paper, dosed 104 weeks, study length 104 weeks
  TD50: 5460 mg/kg/day
mouse, strain B6C3F1, males, in feed, site: stomach, nonglandular, lesion: squamous-cell carcinoma, dosed 104 weeks, study length 104 weeks
  TD50: 13100 mg/kg/day
mouse, strain B6C3F1, males, in feed, site: stomach, nonglandular, lesion: squamous-cell papilloma, dosed 104 weeks, study length 104 weeks
  TD50: 12900 mg/kg/day
[10]
  TD50: 87.7 mg/kg/day (inactive)
[11]
  TD50: 242 mg/kg/day (inactive)
[12]
  TD50: 156 mg/kg/day (inactive)
mouse, strain Charles River CD1, females, in feed, site: digestive tract, lesion: several types, types named in the paper, dosed 112 weeks, study length 112 weeks
  TD50: 2380 mg/kg/day
mouse, strain Charles River CD1, females, in feed, site: duodenum, lesion: adenocarcinoma, dosed 112 weeks, study length 112 weeks
  TD50: 3310 mg/kg/day
mouse, strain Charles River CD1, females, in feed, site: duodenum, lesion: adenoma, dosed 112 weeks, study length 112 weeks
  TD50: 7280 mg/kg/day
mouse, strain Charles River CD1, males, in feed, site: digestive tract, lesion: several types, types named in the paper, dosed 112 weeks, study length 112 weeks
  TD50: 2190 mg/kg/day
mouse, strain Charles River CD1, males, in feed, site: duodenum, lesion: adenocarcinoma, dosed 112 weeks, study length 112 weeks
  TD50: 2400 mg/kg/day
mouse, strain Charles River CD1, males, in feed, site: duodenum, lesion: adenoma, dosed 112 weeks, study length 112 weeks
  TD50: 10300 mg/kg/day
mouse, strain Charles River CD1, males, in feed, site: stomach, nonglandular, lesion: papilloma, dosed 112 weeks, study length 112 weeks
  TD50: 13400 mg/kg/day
rat, strain Charles River CD (Sprague-Dawley), males, in feed, site: testis, lesion: interstitial-cell tumor, dosed 104 weeks, study length 104 weeks
  TD50: 839 mg/kg/day
rat, strain Charles River CD (Sprague-Dawley), males, in feed, site: thyroid gland, lesion: several types, types named in the paper, dosed 104 weeks, study length 104 weeks
  TD50: 2940 mg/kg/day
rat, strain Fischer 344, females, in feed, site: all sites, lesion: malignant lymphoma, dosed 104 weeks, study length 104 weeks
  TD50: 947 mg/kg/day
rat, strain Fischer 344, males, in feed, site: all sites, lesion: malignant lymphoma, dosed 104 weeks, study length 104 weeks
  TD50: 1070 mg/kg/day

## O=S(=O)(O)c1c(N=Nc2c(O)ccc3ccccc23)ccc2ccccc12
rat, strain Osborne-Mendel, females, in feed, site: liver, lesion: adenoma, dosed 105 weeks, study length 105 weeks
  carcinogen call: negative (inactive)
rat, strain Osborne-Mendel, females, in feed, site: pituitary gland, lesion: adenoma, dosed 105 weeks, study length 105 weeks
  TD50: 3560 mg/kg/day (inactive)
rat, strain Osborne-Mendel, males, in feed, site: liver, lesion: hepatocellular adenoma, dosed 105 weeks, study length 105 weeks
  carcinogen call: negative (inactive)

## COc1ccccc1N1CCN(CCCNc2cc(=O)n(C)c(=O)n2C)CC1
rat, strain Slc-Wistar, females, by gavage, site: liver, lesion: one or several types, types not named, dosed 52 weeks, study length 52 weeks
  carcinogen call: negative (inactive)
rat, strain Slc-Wistar, males, by gavage, site: liver, lesion: one or several types, types not named, dosed 52 weeks, study length 52 weeks
  carcinogen call: negative (inactive)

## CCC(C)[N+](=O)[O-] (configuration not stated)
rat, strain Fischer 344, males, by gavage, site: liver, lesion: hepatocellular carcinoma, dosed 50 weeks, study length 83 weeks
  TD50: 2.86 mg/kg/day

## CNC[C@H](O)c1ccc(O)c(O)c1
mouse, strain B6C3F1, females, inhaled, site: liver, lesion: hepatocellular adenoma + hepatocellular carcinoma + neoplastic nodule, dosed 104 weeks, study length 107 weeks
  TD50: 9.74 mg/kg/day
mouse, strain B6C3F1, females, inhaled, site: uterus, lesion: endometrial stromal polyp + endometrial stromal sarcoma, dosed 104 weeks, study length 107 weeks
  TD50: 6.86 mg/kg/day
mouse, strain B6C3F1, females, inhaled, site: uterus, lesion: endometrial stromal polyp, dosed 104 weeks, study length 107 weeks
  TD50: 8.52 mg/kg/day
rat, strain Fischer 344, males, inhaled, site: any site (literature study), lesion: several types, types named in the paper, dosed 103 weeks, study length 105 weeks
  TD50: 4.7 mg/kg/day

## NC(=S)Nc1cccc2ccccc12
[1]
  carcinogen call: negative (inactive)
[2]
  carcinogen call: negative (inactive)
[3]
  carcinogen call: negative (inactive)
[4]
  carcinogen call: negative (inactive)
[5]
  carcinogen call: negative (inactive)
[6]
  carcinogen call: negative (inactive)
[7]
  TD50: 5.34 mg/kg/day (inactive)
[8]
  carcinogen call: negative (inactive)
[9]
  carcinogen call: negative (inactive)
[10]
  TD50: 0.7 mg/kg/day (inactive)
[11]
  carcinogen call: negative (inactive)
[12]
  TD50: 1.27 mg/kg/day (inactive)
